# Data from patent US20110059910A1, “Novel aromatic fluoroglycoside derivatives, pharmaceuticals comprising said compounds and the use thereof” (SANOFI-AVENTIS, priority 2008, published 2011).
# Target: T1, human sodium-dependent glucose transporter 1 (SGLT1, SLC5A1) (Homo sapiens, UniProt P13866)
# T1 construct: Bases 11 to 2005 correspond to the complete coding region of human SGLT1; expressed in transfected cells
# T1 sequence (P13866 1-664): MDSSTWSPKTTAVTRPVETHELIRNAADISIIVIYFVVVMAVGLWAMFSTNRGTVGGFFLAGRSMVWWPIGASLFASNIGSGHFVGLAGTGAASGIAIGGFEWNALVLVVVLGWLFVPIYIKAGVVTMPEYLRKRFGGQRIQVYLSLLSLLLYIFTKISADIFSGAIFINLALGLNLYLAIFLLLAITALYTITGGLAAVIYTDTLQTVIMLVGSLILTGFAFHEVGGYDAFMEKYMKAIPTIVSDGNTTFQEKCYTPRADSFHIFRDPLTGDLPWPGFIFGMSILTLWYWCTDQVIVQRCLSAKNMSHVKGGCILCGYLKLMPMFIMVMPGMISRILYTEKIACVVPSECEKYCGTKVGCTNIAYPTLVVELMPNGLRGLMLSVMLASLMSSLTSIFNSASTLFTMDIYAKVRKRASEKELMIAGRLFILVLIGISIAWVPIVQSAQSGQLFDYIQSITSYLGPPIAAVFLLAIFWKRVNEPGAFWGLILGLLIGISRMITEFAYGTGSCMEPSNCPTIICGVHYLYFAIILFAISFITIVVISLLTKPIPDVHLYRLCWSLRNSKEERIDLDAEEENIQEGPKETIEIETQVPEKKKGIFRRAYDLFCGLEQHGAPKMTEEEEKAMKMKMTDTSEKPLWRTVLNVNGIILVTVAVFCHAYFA
# Assay: Inhibition of the transport activity of human SGLT1 in vitro (α-MDG uptake in CHO-TRex-hSGLT1 cells)
# Format: cell-based
# Conditions: 50 μM α-MDG, 30 min at room temperature
# From the text: Inhibition of the Transport Activity of the Human Sodium-Dependent Glucose Transporter 1 (SGLT1, SLC5A1) In Vitro:
# 1. Cloning of an Expression Vector for Human SGLT1
# The cDNA for human SGLT1 was introduced into the pcDNA4/TO vector (Invitrogen) by means of standard methods of molecular biology as described in Sambrook et al. (Molecular Cloning, A Laboratory Manual, Second Edition). […] Bases 11 to 2005 correspond to the complete coding region of human SGLT1.
# 2. Production of a Recombinant Cell Line with Inducible Expression of Human SGLT1
# The expression vector for human SGLT1 was introduced into CHO-TRex cells (Invitrogen) by means of FuGene6 lipofection (Roche). To select single cell clones, 600 μg/ml of Zeocin (Invitrogen) was added to the cell culture medium (nutrient mixture F-12 (Ham), Invitrogen) supplemented with 10% fetal calf serum (BD Biosciences), 10 μg/ml Blasticidin S(CN Biosciences), 100 units/ml penicillin, 100 units/ml streptomycin). The functionality of the single cell clones resulting from the selection was tested via their uptake activity for radiolabeled methyl-α-D-glucopyranoside. That cell clone with the highest uptake activity for methyl-α-D-glucopyranoside, referred to hereinafter as CHO-TRex-hSGLT1, was selected for the further experiments and cultured further in the presence of 600 μg/ml Zeocin.
# 3. Measurement of the Inhibiting Action of Test Substances on the Uptake of methyl-α-D-glucopyranoside (α-MDG)
# CHO-TRex-hSGLT1 cells were seeded in cell culture medium in a concentration of 50 000 cells per well in Cytostar-T scintillating 96-well plates (Amersham Biosciences) and cultivated for 24 h. The expression of the recombinant human SGLT1 was induced by adding 1 μg/ml tetracycline for a further 24 h. For α-MDG uptake experiments, the cells were washed with PBS and then starved at 37° C. in starvation medium (PBS supplemented with 10% fetal calf serum) for 1 hour. After a further washing step with transport assay buffer (140 mM sodium chloride, 2 mM potassium chloride, 1 mM magnesium chloride, 1 mM calcium chloride, 10 mM HEPES/Tris, pH 7.5), the cells were incubated at room temperature either in the absence or presence of test substances of different concentration for 15 min. The test substances were diluted correspondingly in transport assay buffer proceeding from a 10 mM stock solution in dimethyl sulfoxide (40 μl/well). The assay was subsequently started by adding 10 μl of a mixture of radiolabeled methyl-α-D-[U-^14C]glucopyranoside (Amersham) and unlabeled methyl-α-D-glucopyranoside (Acros). The final concentration of methyl-α-D-glucopyranoside in the assay was 50 μM. After an incubation time of 30 min at room temperature, the reaction was stopped by adding 50 μl/well of 10 mM methyl-α-D-glucopyranoside in transport assay buffer (4° C.), and the radioactivity taken up into the cells was determined in a MicroBeta Scintillation Microplate Reader (Wallac).
# The half-maximum inhibiting action of the test substances (IC50 value) was determined as follows: • 4. Determination of the value for 0% inhibition. This is the measurement in the absence of substance, measured in sodium-containing transport assay buffer. • 5. Determination of the value for 100% inhibition. This is the measurement in the absence of substance, measured in sodium-free transport assay buffer (140 mM choline chloride, 2 mM potassium chloride, 1 mM magnesium chloride, 1 mM calcium chloride, 10 mM HEPES/Tris, pH7.5). • 6. Calculation of the percentage inhibition values of those measurements which were carried out in the presence of different concentrations of test substance. From this, it was then possible to determine that concentration of the test substance which reduces the uptake of the methyl-α-D-glucopyranoside by 50% (IC50 value).
row,Structure (SMILES),IC50
1,CCc1ccc(Cc2cc(C3OC(CO)C(F)(F)C(O)C3O)ccc2Cl)cc1 (centres unmarked) [Example 1],8 µM
2,CCOc1ccc(Cc2cc(C3OC(CO)C(F)(F)C(O)C3O)ccc2Cl)cc1 (centres unmarked) [Example 2],8 µM
3,CCc1ccc(Cc2cc(C3OC(CO)C(F)C(O)C3O)ccc2Cl)cc1 (centres unmarked) [Example 3],0.97 µM
4,COc1ccc(Cc2cccc(C3OC(CO)C(F)C(O)C3O)c2)cc1 (centres unmarked) [Example 5],0.174 µM
5,CCc1ccc(Cc2cc(C3OC(CO)C(F)C(O)C3O)ccc2Cl)s1 (centres unmarked) [Example 6],0.475 µM
6,OCC1OC(c2ccc(Cl)c(Cc3cc4ccccc4s3)c2)C(O)C(O)C1F (centres unmarked) [Example 7],1.3 µM
7,CCOC(=O)OCC1OC(c2ccc(F)c(Cc3ccc(OC)cc3)c2)C(O)C(O)C1F (centres unmarked) [Example 8],6.6 µM
8,COc1ccc(Cc2cc(C3OC(CO)C(F)C(O)C3O)ccc2F)cc1 (centres unmarked) [Example 9],3.6 µM
9,CCOC(=O)OCC1OC(c2ccc(F)c(Cc3ccc(OC)cc3)c2)C(O)C(O)C1(F)F (centres unmarked) [Example 10],13 µM
10,COc1ccc(Cc2cc(C3OC(CO)C(F)(F)C(O)C3O)ccc2F)cc1 (centres unmarked) [Example 11],16 µM
11,CCOC(=O)OCC1OC(c2ccc(OC)c(Cc3ccc(OC)cc3)c2)C(O)C(O)C1F (centres unmarked) [Example 12],1.5 µM
12,COc1ccc(Cc2cc(C3OC(CO)C(F)C(O)C3O)ccc2OC)cc1 (centres unmarked) [Example 13],0.152 µM
13,COc1ccc(Cc2cc(C3OC(CO)C(F)(F)C(O)C3O)ccc2OC)cc1 (centres unmarked) [Example 15],0.611 µM
14,CCOC(=O)OCC1OC(c2ccc(Cl)c(Cc3ccc(OCC)cc3)c2)C(O)C(O)C1F (centres unmarked) [Example 16],25 µM
15,CCOc1ccc(Cc2cc(C3OC(CO)C(F)C(O)C3O)ccc2Cl)cc1 (centres unmarked) [Example 17],0.757 µM
16,CCOC(=O)OCC1OC(c2ccc(Cl)c(Cc3ccc(OCC)cc3)c2)C(O)C(O)C1(F)F (centres unmarked) [Example 18],42 µM
17,CCOC(=O)OCC1OC(c2ccc(Cl)c(Cc3ccc(OC)cc3)c2)C(O)C(O)C1(F)F (centres unmarked) [Example 21],50 µM
18,COc1ccc(Cc2cc(C3OC(CO)C(F)(F)C(O)C3O)ccc2Cl)cc1 (centres unmarked) [Example 22],1.4 µM
19,CCOC(=O)OCC1OC(c2ccc(Cl)c(Cc3ccc(OC(F)(F)F)cc3)c2)C(O)C(O)C1F (centres unmarked) [Example 24],23 µM
20,OCC1OC(c2ccc(Cl)c(Cc3ccc(OC(F)(F)F)cc3)c2)C(O)C(O)C1F (centres unmarked) [Example 25],3.5 µM
21,CCOC(=O)OCC1OC(c2ccc(Cl)c(Cc3ccc(OC(F)(F)F)cc3)c2)C(O)C(O)C1(F)F (centres unmarked) [Example 26],> 10 µM

row,Structure (SMILES),IC50
1,OCC1OC(c2ccc(Cl)c(Cc3ccc(OC(F)(F)F)cc3)c2)C(O)C(O)C1(F)F (centres unmarked) [Example 27],16 µM
2,OC[C@H]1O[C@@H](c2ccc(Cl)c(Cc3ccc(O)cc3)c2)[C@H](O)[C@@H](O)C1(F)F [Example 30],1.2 µM
3,CC(C)Oc1ccc(Cc2cc([C@@H]3O[C@H](CO)C(F)(F)[C@H](O)[C@H]3O)ccc2Cl)cc1 [Example 31],12 µM
4,Cc1ccc(C2OC(CO)C(F)(F)C(O)C2O)cc1Cc1ccc(O)cc1 (centres unmarked) [Example 33],2.6 µM
5,COc1ccc(Cc2cc(C3OC(CO)C(F)(F)C(O)C3O)ccc2C)cc1 (centres unmarked) [Example 34],1.5 µM
6,CCOC(=O)OCC1OC(c2ccc(Cl)c(Cc3ccc(OC)cn3)c2)C(O)C(O)C1F (centres unmarked) [Example 35],4.3 µM
7,COc1ccc(Cc2cc(C3OC(CO)C(F)C(O)C3O)ccc2Cl)nc1 (centres unmarked) [Example 36],2.7 µM
8,CCOC(=O)OCC1OC(c2ccc(Cl)c(Cc3ccc(OC)cn3)c2)C(O)C(O)C1(F)F (centres unmarked) [Example 37],23.4 µM
9,COc1ccc(Cc2cc(C3OC(CO)C(F)(F)C(O)C3O)ccc2Cl)nc1 (centres unmarked) [Example 38],26.5 µM
10,CCOC(=O)OC[C@H]1O[C@@H](c2ccc(OC(F)(F)F)c(Cc3ccc(OC)cc3)c2)[C@H](O)[C@@H](O)[C@@H]1F [Example 39],22.8 µM
11,COc1ccc(Cc2cc([C@@H]3O[C@H](CO)[C@@H](F)[C@H](O)[C@H]3O)ccc2OC(F)(F)F)cc1 [Example 40],0.232 µM
12,CCOC(=O)OC[C@H]1O[C@@H](c2ccc(OC(F)(F)F)c(Cc3ccc(OC)cc3)c2)[C@H](O)[C@@H](O)C1(F)F [Example 41],11.8 µM
13,COc1ccc(Cc2cc([C@@H]3O[C@H](CO)C(F)(F)[C@H](O)[C@H]3O)ccc2OC(F)(F)F)cc1 [Example 42],3.3 µM
14,OC[C@H]1O[C@@H](c2ccc(Cl)c(Cc3ccc(Cl)cc3)c2)[C@H](O)[C@@H](O)[C@@H]1F [Example 44],0.331 µM
15,OC[C@H]1O[C@@H](c2ccc(Cl)c(Cc3ccc(Cl)cc3)c2)[C@H](O)[C@@H](O)C1(F)F [Example 46],2.6 µM
16,COc1ccc(Cc2cc([C@@H]3O[C@H](CO)[C@@H](F)[C@H](O)[C@H]3O)ccc2C(F)(F)F)cc1 [Example 48],0.24 µM
17,CCOC(=O)OC[C@H]1O[C@@H](c2ccc(C(F)(F)F)c(Cc3ccc(OC)cc3)c2)[C@H](O)[C@@H](O)C1(F)F [Example 49],> 100 µM
18,COc1ccc(Cc2cc([C@@H]3O[C@H](CO)C(F)(F)[C@H](O)[C@H]3O)ccc2C(F)(F)F)cc1 [Example 50],7.3 µM
19,COc1ccc(Cc2cc(C3OC(CO)C(F)C(O)C3O)ccc2Br)cc1 (centres unmarked) [Example 56],0.18 µM
20,CCc1ccc(Cc2cc(C3OC(CO)C(F)C(O)C3O)ccc2C)cc1 (centres unmarked) [Example 61],0.461 µM
